Data from PubChem BioAssay AID330 (DTP/NCI, 2004).
“And” between values parts separate entries of the source, which are not always exact repeats. Equal values may be shown once. Toxic doses and inconclusive results are not listed.

Tested on: P388 leukemia ip, CD2F1 mice, survival T/C
Test: NCI In Vivo Anticancer Drug Screen. Data for tumor model P388 Leukemia (intraperitoneal) in CD2F1 (CDF1) mice
Conditions: endpoint: median survival time, higher = longer survival
In short: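 Mice carrying the transplanted tumor received test compound or vehicle. Survival was recorded in each group, and the value is the treated-group measurement divided by that of the vehicle-treated control group.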

[1] = dose: 50.0 mg/kg/injection, schedule: Q01DX009 (ip), vehicle: saline with Tween-80
[2] = dose: 100.0 mg/kg/injection, schedule: Q01DX009 (ip), vehicle: saline with Tween-80
[3] = dose: 200.0 mg/kg/injection, schedule: Q01DX009 (ip), vehicle: saline with Tween-80
[4] = dose: 60.0 mg/kg/injection, schedule: Q01DX005 (ip), vehicle: saline with Tween-80
[5] = dose: 120.0 mg/kg/injection, schedule: Q01DX005 (ip), vehicle: saline with Tween-80
[6] = dose: 240.0 mg/kg/injection, schedule: Q01DX005 (ip), vehicle: saline with Tween-80

COC(=O)C1=CO[C@@H](OC2OC(CO)C(O)C(O)C2O)[C@H]2[C@@H]1C=C[C@@]21C=C([C@H](C)OC(=O)/C=C/c2ccc(OC3OC(CO)C(O)C(O)C3O)cc2)C(=O)O1 (stereo partly drawn)
T/C (dose: 56.0 mg/kg/injection, schedule: Q01DX005 (ip), vehicle: water): 105 % of control
T/C (dose: 112.0 mg/kg/injection, schedule: Q01DX005 (ip), vehicle: water): 105 % of control
T/C (dose: 225.0 mg/kg/injection, schedule: Q01DX005 (ip), vehicle: water): 104 % of control

Clc1nc(Cl)nc(N2CCCc3ccccc32)n1
T/C [1]: 89 % of control
T/C [2]: 96 % of control
T/C [3]: 93 % of control

Oc1cc2c(cc1C(c1ccc3c(c1)OCO3)N1CCOCC1)OCO2 (stereo not drawn)
T/C [4]: 118 % of control
T/C [5]: 106 % of control
T/C [6]: 111 % of control

O=C(OC(CCc1ccccc1)C(=O)O)c1ccc([N+](=O)[O-])cc1 (stereo not drawn)
T/C (dose: 75.0 mg/kg/injection, schedule: Q01DX001 (ip), vehicle: Klucel (hydroxypropylcellulose) (HPC)): 111 % of control
T/C (dose: 150.0 mg/kg/injection, schedule: Q01DX001 (ip), vehicle: Klucel (hydroxypropylcellulose) (HPC)): 112 % of control
T/C (dose: 300.0 mg/kg/injection, schedule: Q01DX001 (ip), vehicle: Klucel (hydroxypropylcellulose) (HPC)): 97 % of control

Cc1ccc(S(=O)(=O)CC(=O)CC(=O)C(=O)NC2C3CC4CC(C3)CC2C4)cc1 (stereo not drawn)
T/C (dose: 50.0 mg/kg/injection, schedule: Q01DX005 (ip), vehicle: saline with Tween-80): 98 % of control
T/C (dose: 100.0 mg/kg/injection, schedule: Q01DX005 (ip), vehicle: saline with Tween-80): 90 % of control
T/C (dose: 200.0 mg/kg/injection, schedule: Q01DX005 (ip), vehicle: saline with Tween-80): 90 % of control

CCN(Cc1ccccc1)C(=O)Nc1c(Cl)cccc1Cl
T/C [4]: 92 % of control
T/C [5]: 95 % of control
T/C [6]: 86 % of control

c1ccc2[s+]csc2c1
T/C (dose: 6.25 mg/kg/injection, schedule: Q01DX009 (ip), vehicle: distilled water + Tween-80): 102 % of control
T/C (dose: 12.5 mg/kg/injection, schedule: Q01DX009 (ip), vehicle: distilled water + Tween-80): 92 % of control
T/C (dose: 25.0 mg/kg/injection, schedule: Q01DX009 (ip), vehicle: distilled water + Tween-80): 107 % of control
T/C (dose: 50.0 mg/kg/injection, schedule: Q01DX009 (ip), vehicle: distilled water + Tween-80): 108 % of control
T/C (dose: 100.0 mg/kg/injection, schedule: Q01DX009 (ip), vehicle: distilled water + Tween-80): 93 % of control

Nc1c(OS(=O)(=O)c2ccccc2)cccc1OS(=O)(=O)c1ccccc1
T/C [1]: 91 % of control
T/C [2]: 90 % of control

CCCCCC(N)C(C)=O (stereo not drawn)
T/C (dose: 12.5 mg/kg/injection, schedule: Q01DX009 (ip), vehicle: saline): 110 % of control
T/C (dose: 25.0 mg/kg/injection, schedule: Q01DX009 (ip), vehicle: saline): 106 % of control
T/C [1]: 106 % of control and 97 % of control
T/C (dose: 50.0 mg/kg/injection, schedule: Q01DX009 (ip), vehicle: saline): 105 % of control
T/C [3]: 187 % of control
T/C (dose: 400.0 mg/kg/injection, schedule: Q01DX009 (ip), vehicle: saline with Tween-80): 187 % of control

COc1cc(/C=C/C=C/c2ccccc2)oc(=O)c1
T/C (dose: 100.0 mg/kg/injection, schedule: Q04DX003 (ip), vehicle: Klucel (hydroxypropylcellulose) (HPC)): 91 % of control
T/C (dose: 200.0 mg/kg/injection, schedule: Q04DX003 (ip), vehicle: Klucel (hydroxypropylcellulose) (HPC)): 90 % of control
T/C (dose: 400.0 mg/kg/injection, schedule: Q04DX003 (ip), vehicle: Klucel (hydroxypropylcellulose) (HPC)): 92 % of control

O=C1CSC(c2ccccc2F)N1c1nccs1 (stereo not drawn)
T/C (dose: 50.0 mg/kg/injection, schedule: Q01DX005 (ip), vehicle: Klucel (hydroxypropylcellulose) (HPC)): 100 % of control
T/C (dose: 100.0 mg/kg/injection, schedule: Q01DX005 (ip), vehicle: Klucel (hydroxypropylcellulose) (HPC)): 103 % of control
T/C (dose: 200.0 mg/kg/injection, schedule: Q01DX005 (ip), vehicle: Klucel (hydroxypropylcellulose) (HPC)): 109 % of control

CCOC(=O)/C(C(C)=O)=C1/c2c(ccc(OC)c2OC)C=C2c3cc4c(cc3CCN21)OCO4
T/C (dose: 0.63 mg/kg/injection, schedule: Q01DX009 (ip), vehicle: water): 105 % of control
T/C (dose: 1.25 mg/kg/injection, schedule: Q01DX009 (ip), vehicle: water): 108 % of control
T/C (dose: 2.5 mg/kg/injection, schedule: Q01DX009 (ip), vehicle: water): 101 % of control
T/C (dose: 5.0 mg/kg/injection, schedule: Q01DX009 (ip), vehicle: water): 124 % of control
T/C (dose: 10.0 mg/kg/injection, schedule: Q01DX009 (ip), vehicle: water): 101 % of control
T/C (dose: 20.0 mg/kg/injection, schedule: Q01DX009 (ip), vehicle: water): 107 % of control
